Experimental data as given in patent US20250120981A1, “MRTX1133 PHARMACEUTICAL COMPOSITIONS” (MIRATI THERAPEUTICS, INC., priority 2023, published 2025).
Read-outs that look alike come from different tables or passages of the source.

Assay: Pharmacokinetics in humans, MRTX1133 formulation, oral, single and multiple doses
Format: in vivo
Conditions: for increase in the mean exposure: dose increased from 200 mg BID to 400 mg BID; for concentration at 0 h / concentration at 0.5 h / concentration at 1 h / concentration at 1.5 h / concentration at 2 h / concentration at 4 h / concentration at 6 h / concentration at 8 h / concentration at 12 h / concentration at 24 h / AUC(0-t) / Cmax / Tmax / AUC0-inf / concentration at 3 h / concentration at 5 h / concentration at 48 h / concentration at 72 h / concentration at 96 h / half-life: human, plasma, po; for AUC0-inf: read-out: AUC0-inf, Geo Mean
Experimental: The pharmacokinetics [PK] of the MRTX1133 formulation after oral administration has been evaluated in 25 subjects across 3 escalating dose frequencies under fasting conditions (200 mg twice daily [BID], 400 mg BID, and 800 mg BID), as well as evaluation of 400 mg BID when administered with a low-fat meal (i.e., under fed conditions). The mean (+standard deviation) single-dose and multiple-dose pharmacokinetic profiles of the evaluated doses are presented in FIG. 9 and FIG. 10, respectively. Individual single- and multiple-dose PK profiles can be found in FIG. 11. For all figures, the X-axis represents nominal time of sample collection (hours [h]) and the Y-axis represents plasma concentration (ng/mL). Table 10 lists PK data following the oral administration of a single dose and multiple doses of MRTX1133 formulation by dose level and subject.

[1] = 200 mg, multiple oral doses of 200 mg BID, fasted, mean of subjects, read-out: Plasma concentration, Mean
[2] = 200 mg, single oral dose of 200 mg, fasted, mean of subjects, read-out: Plasma concentration, Mean
[3] = 400 mg, multiple oral doses of 400 mg BID with a low-fat meal, mean of subjects, read-out: Plasma concentration, Mean
[4] = 400 mg, multiple oral doses of 400 mg BID with a low-fat meal, mean of subjects
[5] = 400 mg, multiple oral doses of 400 mg BID, fasted, mean of subjects, read-out: Plasma concentration, Mean
[6] = 400 mg, single oral dose of 400 mg with a low-fat meal, mean of subjects, read-out: Plasma concentration, Mean
[7] = 400 mg, single oral dose of 400 mg with a low-fat meal, mean of subjects
[8] = 400 mg, single oral dose of 400 mg with a low-fat meal, individual subjects, read-out: Plasma concentration
[9] = 400 mg, single oral dose of 400 mg, fasted, mean of subjects, read-out: Plasma concentration, Mean
[10] = 400 mg, single oral dose of 400 mg, fasted, individual subjects, read-out: Plasma concentration
[11] = 800 mg, multiple oral doses of 800 mg BID, fasted, Mean of subjects, read-out: Plasma concentration

increase in the mean exposure (fasted, multiple doses): ~4.4 fold
increase in the mean exposure (fasted, single dose): approximately 1.8 fold
concentration at 0 h [1]: 5.33 ng/mL
concentration at 0.5 h [1]: 28.1 ng/mL
concentration at 1 h [1]: 31.1 ng/mL
concentration at 1.5 h [1]: 33.1 ng/mL
concentration at 2 h [1]: 20.1 ng/mL
concentration at 4 h [1]: 6.62 ng/mL
concentration at 6 h [1]: 3.85 ng/mL
concentration at 8 h [1]: 2.79 ng/mL
concentration at 12 h [1]: 2.46 ng/mL
concentration at 24 h (200 mg, multiple oral doses of 200 mg BID, fasted, individual subjects, sample taken after PM dose, read-out: Plasma concentration): 0.73 ng/mL
AUC(0-t) (200 mg, multiple oral doses of 200 mg BID, fasted, geometric mean of subjects, read-out: AUC0-12, Geo Mean): 93.1 ng·h/mL
AUC(0-t) (200 mg, multiple oral doses of 200 mg BID, fasted, geometric mean of subjects, read-out: AUC0-last, Geo Mean): 75.2 ng·h/mL
Cmax (200 mg, multiple oral doses of 200 mg BID, fasted, geometric mean of subjects, read-out: Cmax, Geo Mean): 36 ng/mL
Tmax (200 mg, multiple oral doses of 200 mg BID, fasted, median of subjects (footnote b), read-out: Tmax, Median): 1.5 h
concentration at 0.5 h [2]: 11.1 ng/mL
concentration at 1 h [2]: 44.3 ng/mL
concentration at 1.5 h [2]: 39 ng/mL
concentration at 2 h [2]: 39.3 ng/mL
concentration at 4 h [2]: 30.4 ng/mL
concentration at 6 h [2]: 11.9 ng/mL
concentration at 8 h [2]: 6.58 ng/mL
concentration at 12 h [2]: 4.44 ng/mL
concentration at 24 h [2]: 0.521 ng/mL
AUC(0-t) (200 mg, single oral dose of 200 mg, fasted, geometric mean of subjects, read-out: AUC0-12, Geo Mean): 148 ng·h/mL
AUC0-inf (200 mg, single oral dose of 200 mg, fasted, geometric mean of subjects): 165 ng·h/mL
AUC(0-t) (200 mg, single oral dose of 200 mg, fasted, geometric mean of subjects, read-out: AUC0-last, Geo Mean): 151 ng·h/mL
Cmax (200 mg, single oral dose of 200 mg, fasted, geometric mean of subjects, read-out: Cmax, Geo Mean): 59.8 ng/mL
Tmax (200 mg, single oral dose of 200 mg, fasted, median of subjects (footnote b), read-out: Tmax, Median): 1.5 h
concentration at 0 h [3]: 16.7 ng/mL
concentration at 1 h [3]: 138 ng/mL
concentration at 2 h [3]: 66.7 ng/mL
concentration at 3 h [4]: 55.1 ng/mL
concentration at 4 h [3]: 100 ng/mL
concentration at 5 h [4]: 39.8 ng/mL
concentration at 6 h [3]: 30 ng/mL
concentration at 8 h [3]: 23 ng/mL
concentration at 12 h [3]: 17.3 ng/mL
AUC(0-t) (400 mg, multiple oral doses of 400 mg BID with a low-fat meal, geometric mean of subjects, read-out: AUC0-12, Geo Mean): 310 ng·h/mL
AUC(0-t) (400 mg, multiple oral doses of 400 mg BID with a low-fat meal, geometric mean of subjects, read-out: AUC0-last, Geo Mean): 310 ng·h/mL
Cmax (400 mg, multiple oral doses of 400 mg BID with a low-fat meal, geometric mean of subjects, read-out: Cmax, Geo Mean): 102 ng/mL
Tmax (400 mg, multiple oral doses of 400 mg BID with a low-fat meal, median of subjects (footnote b), read-out: Tmax, Median): 1 h
concentration at 0 h [5]: 19.4 ng/mL
concentration at 0.5 h [5]: 72.7 ng/mL
concentration at 1 h [5]: 85.9 ng/mL
concentration at 1.5 h [5]: 64.6 ng/mL
concentration at 2 h [5]: 48.5 ng/mL
concentration at 4 h [5]: 77.3 ng/mL
concentration at 6 h [5]: 63.4 ng/mL
concentration at 8 h [5]: 40.3 ng/mL
concentration at 12 h [5]: 27.8 ng/mL
AUC(0-t) (400 mg, multiple oral doses of 400 mg BID, fasted, geometric mean of subjects, read-out: AUC0-12, Geo Mean): 410 ng·h/mL
AUC(0-t) (400 mg, multiple oral doses of 400 mg BID, fasted, geometric mean of subjects, read-out: AUC0-last, Geo Mean): 410 ng·h/mL
Cmax (400 mg, multiple oral doses of 400 mg BID, fasted, geometric mean of subjects, read-out: Cmax, Geo Mean): 111 ng/mL
Tmax (400 mg, multiple oral doses of 400 mg BID, fasted, median of subjects (footnote b), read-out: Tmax, Median): 1 h
concentration at 1 h [6]: 46.7 ng/mL
concentration at 2 h [6]: 43.6 ng/mL
concentration at 3 h [7]: 43.7 ng/mL
concentration at 4 h [6]: 59.7 ng/mL
concentration at 5 h [7]: 53.9 ng/mL
concentration at 6 h [6]: 43.6 ng/mL
concentration at 8 h [6]: 20.4 ng/mL
concentration at 12 h [6]: 11.3 ng/mL
concentration at 24 h [8]: 7.59 ng/mL
concentration at 24 h [6]: 7.59 ng/mL
concentration at 48 h [8]: 3.13 ng/mL
concentration at 48 h [6]: 3.13 ng/mL
concentration at 72 h [8]: 2.13 ng/mL
concentration at 72 h [6]: 2.13 ng/mL
concentration at 96 h [8]: 1.12 ng/mL
concentration at 96 h [6]: 1.12 ng/mL
AUC(0-t) (400 mg, single oral dose of 400 mg with a low-fat meal, geometric mean of subjects, read-out: AUC0-12, Geo Mean): 256 ng·h/mL
AUC0-inf (400 mg, single oral dose of 400 mg with a low-fat meal, geometric mean of subjects): 300 ng·h/mL
AUC(0-t) (400 mg, single oral dose of 400 mg with a low-fat meal, geometric mean of subjects, read-out: AUC0-last, Geo Mean): 277 ng·h/mL
Cmax (400 mg, single oral dose of 400 mg with a low-fat meal, geometric mean of subjects, read-out: Cmax, Geo Mean): 66.6 ng/mL
half-life (400 mg, single oral dose of 400 mg with a low-fat meal, geometric mean of subjects, read-out: T1/2, Geo Mean (converted)): 27.2 h
half-life (400 mg, single oral dose of 400 mg with a low-fat meal, individual subjects, read-out: T1/2 (converted)): 27.2 h
Tmax (400 mg, single oral dose of 400 mg with a low-fat meal, median of subjects (footnote b), read-out: Tmax, Median): 4 h
concentration at 0.5 h [9]: 42.7 ng/mL
concentration at 1 h [9]: 52.2 ng/mL
concentration at 1.5 h [9]: 48.9 ng/mL
concentration at 2 h [9]: 83.3 ng/mL
concentration at 4 h [9]: 64.4 ng/mL
concentration at 6 h [9]: 34.5 ng/mL
concentration at 8 h [9]: 23 ng/mL
concentration at 12 h [9]: 11.9 ng/mL
concentration at 24 h [10]: 3.75 ng/mL
concentration at 24 h [9]: 3.75 ng/mL
concentration at 48 h [10]: 1.46 ng/mL
concentration at 48 h [9]: 1.46 ng/mL
concentration at 72 h [10]: 0.872 ng/mL
concentration at 72 h [9]: 0.872 ng/mL
concentration at 96 h [10]: 0.538 ng/mL
concentration at 96 h [9]: 0.538 ng/mL
AUC(0-t) (400 mg, single oral dose of 400 mg, fasted, geometric mean of subjects, read-out: AUC0-12, Geo Mean): 263 ng·h/mL
AUC0-inf (400 mg, single oral dose of 400 mg, fasted, geometric mean of subjects): 304 ng·h/mL
AUC(0-t) (400 mg, single oral dose of 400 mg, fasted, geometric mean of subjects, read-out: AUC0-last, Geo Mean): 278 ng·h/mL
Cmax (400 mg, single oral dose of 400 mg, fasted, geometric mean of subjects, read-out: Cmax, Geo Mean): 86.2 ng/mL
half-life (400 mg, single oral dose of 400 mg, fasted, geometric mean of subjects, read-out: T1/2, Geo Mean (converted)): 33.3 h
half-life (400 mg, single oral dose of 400 mg, fasted, individual subjects, read-out: T1/2 (converted)): 33.3 h
Tmax (400 mg, single oral dose of 400 mg, fasted, median of subjects (footnote b), read-out: Tmax, Median): 2 h
concentration at 0 h [11]: 20.6 ng/mL
concentration at 0.5 h [11]: 97.2 ng/mL
concentration at 1 h [11]: 137 ng/mL
concentration at 1.5 h [11]: 107 ng/mL
concentration at 2 h [11]: 122 ng/mL
concentration at 4 h [11]: 138 ng/mL
concentration at 6 h [11]: 107 ng/mL
concentration at 8 h [11]: 56.2 ng/mL
concentration at 12 h [11]: 14.7 ng/mL
AUC(0-t) (800 mg, multiple oral doses of 800 mg BID, fasted, Geo Mean of subjects, read-out: AUC0-12): 347 ng·h/mL
AUC(0-t) (800 mg, multiple oral doses of 800 mg BID, fasted, Geo Mean of subjects, read-out: AUC0-last): 477 ng·h/mL
Cmax (800 mg, multiple oral doses of 800 mg BID, fasted, Geo Mean of subjects, read-out: Cmax): 99.5 ng/mL
Tmax (800 mg, multiple oral doses of 800 mg BID, fasted, Median of subjects, read-out: Tmax): 2 h
Structure (SMILES): C#Cc1c(F)ccc2cc(O)cc(-c3ncc4c(N5C[C@H]6CC[C@@H](C5)N6)nc(OC[C@@]56CCCN5C[C@H](F)C6)nc4c3F)c12 [MRTX1133, 4-(4-((1R,5S)-3,8-diazabicyclo[3.2.1]octan-3-yl)-8-fluoro-2-(((2R,7aS)-2-fluorohexahydro-1Hpyrrolizin-7a-yl)methoxy)pyrido[4,3-d]pyrimidin-7-yl)-5-ethynyl-6-fluoronaphthalen-2-ol]
change of mean single- and multiple-dose exposure (dose increased from 400 mg BID to 800 mg BID, fasted): did not change in a clinically meaningful manner
